# Measured values published in patent US11479604B2, “Immunomodulatory peptides and methods for modulating the immune system in a subject” (Recepta Biopharma S.A., priority 2017, dated 2022).
# Key:
# B16F10-Nex2 tumor cells = assay: Metastatic melanoma model in immunodeficient mice; assay type: in vivo, NOD/Scid/IL-2R-gamma^null mice; conditions: 250 μg i.p. on days 1-11, lungs on day 22
# Method: B16F10-Nex2 tumor cells (2×10^5) in RPMI (100 μl) were injected in both animal groups in the tail veins on day 0. Animals were sacrificed on day 22, or 10 days after the last administration of the peptide, and their lungs were examined for dark melanotic nodules.
# [1] = tested on: pancreas carcinoma Panc02; assay: Subcutaneous syngeneic pancreatic carcinoma model; assay type: in vivo, C57BL6 mice; conditions: 300 μg i.p., 5 doses every other day
# Method: Male C57BL/6 mice, 6 to 8-week-old were obtained from the Center for Development of Experimental Models (CEDEME), Federal University of Sao Paulo (UNIFESP). For the in vivo metastatic model, C57BL/6 mice received one intravenous (i.v.) injection of 2×10^5 viable B16-F10-Next melanoma cells in 100 μL. […] The control group received 100 μL PBS. Twenty-two days later, mice (minimum n=3 per group) had their lungs harvested, and the number of macroscopic melanotic nodules were counted. The Ethical Committee of Federal University of São Paulo, Project no. 1234, 2011, approved all experiments with animals, according to International guidelines. For the subcutaneous model, mice were injected with 5×10^5 tumor cells suspended in 100 μL of PBS in the right flank via the subcutaneous route. The peptide (300 μg) was solubilized in 10 μL of distilled H2O and 90 μL of PBS and injected per mouse via the intraperitoneal route. The administration of the peptide was performed in 5 alternate days initiating one day after tumor challenge. Tumor longitudinal diameter (D) and transverse diameter (d) were measured every 2 days until the tumor volume reached 3,000 mm3. Animals were sacrificed when the allowed volume was reached. Volume was calculated using the formula v=Dd^2×0.52. […]
# [2] = tested on: B16F10-Nex2 melanoma cells; assay: Therapeutic adoptive transfer of peptide-stimulated dendritic cells, metastatic melanoma; assay type: in vivo, syngeneic mice; conditions: DCs administered 8 days after melanoma challenge; compared to unstimulated or Rb10A1 treated DCs
# Source text: DCs were inoculated s.c. in syngeneic mice, 8 days after the melanoma tumor cell challenge. The B16F10-Nex2 cell lysate was not used to prime DCs in this assay to avoid excess tumor antigen derived from tumor cell lysis in vivo, and a tolerogenic response. Lung nodules of melanoma cells injected i.v. and formed after 7 days and after 12 days, from 3 independent experiments were combined to represent colonization clusters for comparison with the therapeutic experiment of FIG. 6C.
# [3] = tested on: T lymphocytes of lungs, spleen and lymph nodes; assay: Flow cytometry of Treg, T-CD4+ and T-CD8+ cells after prophylactic DC protocol; assay type: in vivo, mice
# Method: On day 14, mice were inoculated i.v. with B16F10.Nex2 melanoma tumor cells and on day 29, lungs, spleen and cervical and axillary lymph nodes were examined for CD3+ cells, and the proportion of T-CD4+ and T-CD8+ cells.
# The lungs were incubated with 2 mg/ml of collagenase for 40 min at 37° C. before maceration. The cell suspension was incubated with cold hemolytic buffer for 1 min and then centrifuged. The pellet was suspended with RPMI medium and counted. 1×10^6 Cells of each group were processed and stained using the Treg Detection Kit (Miltenyi Biotec, Cambridge, USA). Lymphocytes were characterized using anti-CD4 (FITC), anti-CD25 (PE) and anti-Foxp3 (APC). Samples were analyzed by flow cytometry using FACSCantoII (Becton Dickinson, San Jose, Calif., USA). Acquired data were analyzed using the FlowJo V10 (TreeStar Inc., Ashland, Oreg., USA). The percentages of Foxp3^+ in CD4^+CD25^+ lymphocytes are indicated.
# The cell suspension was incubated with cold hemolytic buffer for 1 min and then centrifuged. The pellet was suspended with RPMI medium and counted. 1×10^6 Cells of each group were stained with anti-CD3 (PE) and anti-CD4 (FITC) or anti-CD3 (PE) and anti-CD8 (FITC). All antibodies used were purchase from Miltenyi Biotec, Cambridge, USA. Samples were analyzed by flow cytometry using FACSCantoII (Becton Dickinson, San Jose, Calif., USA). Acquired data were analyzed using the FlowJo V10 (TreeStar Inc., Ashland, Oreg., USA). The percentages of CD4^+ or CD8^+ in CD3^+ lymphocytes are indicated.
# B16F10-Nex2 cells = assay: Anti-melanoma antibodies in sera of treated mice; assay type: in vivo; conditions: 1/5 diluted sera; BSA treated or untreated tumor cells
# [4] = tested on: human mo-DC from healthy donors; assay: mo-DC generated under tolerogenic, TNF-alpha or LPS conditions, flow cytometry; assay type: cell-based
# Method: To further evaluate and confirm this property, mo-DC were generated from healthy donors cells in three different conditions, all in the presence of GM-CSF (50 ng/mL) and IL-4 (50 ng/mL). To one group of cells at day 5, TGF-beta ([…]) and IL-10 (1 ug/mL) were added; to a second group, at day 5, TNF-alpha was added and to a third group, LPS (100 ng/mL) was added at day 6. The first condition is known to induce phenotypic changes in mo-DC consistent with a tolerogenic activity of the cells, while both other conditions generate mature mo-DC, with LPS representing a stronger maturation stimulus than TNF-alpha. […] At day 7 all cells were harvested and analyzed by flow cytometry.
# [5] = tested on: B16F10-Nex2 melanoma cells; conditions: as determined in U.S. Pat. No. 9,193,797 B2; cited from earlier work
# [6] = prophylactic protocol with peptide-stimulated DCs
# [7] = tolerogenic conditions (TGF-beta+IL-10)
substance,measurement,setting,value
"[CARGETARATFAYWGQGC], NH2 (C-C) [Rb9]",protection against lung nodules,B16F10-Nex2 tumor cells,No protection
same,deaths up to the 40th day,[1],no deaths were recorded
same,s.c. tumor growth,[1],significantly delayed
same,protection by peptide-stimulated DCs (lung nodules),[2],significant protection
same,T-CD4+ and T-CD8+ effector cells,[3]; [6],increased T-CD4+ and T-CD8+ effector cells
same,Tregs (FoxP3+),[3]; [6],reduced Tregs
same,proportion of T-CD8+ to T-CD4+ cells,"[3]; spleen and lymph nodes (except lungs), day 29, DCs stimulated by peptide",T-CD8+ cells greatly predominated over T-CD4+ effector cells
same,"reactivity of sera with B16F10-Nex2 cells, i.d. relative to i.p. administration",B16F10-Nex2 cells,4-5 times
same,number of CD11c+HLA-DR+ cells,[4]; LPS-treated cells,decreased the number of cells
same,percentage of CD11c+HLA-DR+ cells,[4]; TGF-beta+IL-10 group,increased the percentage of cells
same,percentage of CD11c+HLA-DR+ cells,[4]; TNF group,little effect
same,co-stimulatory potential (CD80 and CD86 double-positive cells),[4]; mild stimulus (TNF-alpha),partially inhibitory
same,maturation of mo-DC (HLA-DR+CD83+),[4]; mild stimulus (TNF-alpha),enhanced their maturation
same,co-stimulatory potential (CD80 and CD86 double-positive cells),[4]; strongly stimulated by LPS,clearly inhibitory
same,maturation of mo-DC (HLA-DR+CD83+),[4]; strongly stimulated by LPS,inhibitory
same,co-stimulatory potential (CD80 and CD86 double-positive cells),[4]; [7],increased their co-stimulatory potential
same,maturation of mo-DC (HLA-DR+CD83+),[4]; [7],increased the maturation
same,in vivo protection against metastatic melanoma by CDRs of RebMab200,[5],displayed this in vivo protection
